Measured values from patent US4988692A, “2,4-dioxo-5-phenyl-2,3,4,5-tetrahydro-1H-1,5-benzodiazepines” (Uclaf; Roussel, priority 1985, dated 1991).

How the values were obtained:
[1] = target: T1, Peripheral CCK receptors (Rattus norvegicus, UniProt P30551); assay: Peripheral receptors: 3H CCK8 binding, rat pancreas homogenate
T1 construct: The pancreases of 3 male rats weighing 150-200 g were removed and ground up with Polytron; from tissue; host or cells: rat pancreas homogenate (30,000 g pellet)
T1 sequence (P30551 1-444): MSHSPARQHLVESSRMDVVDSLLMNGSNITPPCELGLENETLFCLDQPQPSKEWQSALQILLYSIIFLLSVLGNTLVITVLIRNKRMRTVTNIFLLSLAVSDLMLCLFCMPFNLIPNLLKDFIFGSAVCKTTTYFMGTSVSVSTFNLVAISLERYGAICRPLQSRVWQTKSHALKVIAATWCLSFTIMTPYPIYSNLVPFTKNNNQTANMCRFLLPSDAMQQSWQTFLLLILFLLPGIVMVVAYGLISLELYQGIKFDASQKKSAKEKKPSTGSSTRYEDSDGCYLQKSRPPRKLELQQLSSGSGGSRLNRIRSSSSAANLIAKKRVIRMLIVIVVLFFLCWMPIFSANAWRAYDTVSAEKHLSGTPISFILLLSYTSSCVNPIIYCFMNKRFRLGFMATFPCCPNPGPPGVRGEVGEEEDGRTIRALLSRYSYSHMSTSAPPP
Description: The pancreases of 3 male rats weighing 150-200 g were removed and ground up with Polytron (4 grindings, speed 3, with an interval of 10 seconds between the grindings) and the homogenate was filtered through a gauze and then centrifuged at 30,000 g for 30 minutes. The residues obtained were taken up in 400 volumes (600 ml) of Tris 50 mM HCl pH 7.4 buffer containing BSA 2 g/l., bacitracin 0.1 mM, MgCl2 5 mM, dithiothreitol 5 mM. 2 ml aliquots of the homogenate were incubated at 25° C. for 60 minutes in the presence of […] 3H CCK8 and of the test product (10,000 μM for 1 dose, or with one range of 7 doses) and of cold CCK8 (10^-6 M) which was the reference product. After returning to 0° C., the aliquots were filtered on Whatman GF/B filters, pre-washed in a solution of polyethylene imine at 0.05% and washed with 3×5 ml of buffer Tris HCl 50 mM, pH 7.4. The results were expressed in IC50, the concentration necessary to inhibit by 50% the fixed specific radioactivity, IC50 n mol

[2] = tested on: food consumption; assay: Action on the alimentary intake in a rat; assay type: in vivo; settings: 10 mg/kg intraperitoneal, consumption followed hourly for 5 hours
Description: The tests were carried out on groups of 5 rats weighing 250 g±10 g and the animals were individually placed in cages with a trough as described by Fregly (J. Appl. Physiol Vol. 15 (1960), p. 539) which avoided wasting of the powdered foodstuffs. The rats were accustomed to taking their daily portion over 5 consecutive hours with as much drinking water as desired being offered in glass feeding bottles. The quantities of food ingested were determined individually by the weight of the troughs and the comsumptions were followed hourly for 5 hours after intraperitoneal administration of 10 mg/kg of the compound. The quantities consumed are expressed in g/100 g of body weight per hour. The averages are compared to those obtained with control animals by a DUNNETT test.

[3] = target: T2, Central CCK receptors (Rattus norvegicus, UniProt P30553); assay: Central receptors: 3H CCK8 binding, rat cortex homogenate; settings: 0.5 nM 3H CCK8, 25° C., 30 minutes
T2 construct: The cortices of 20 male rats weighing 150 to 200 g were removed, and were ground up with Polytron in sucrose; from tissue; host or cells: rat cerebral cortex homogenate (washed membrane pellet)
T2 sequence (P30553 1-452): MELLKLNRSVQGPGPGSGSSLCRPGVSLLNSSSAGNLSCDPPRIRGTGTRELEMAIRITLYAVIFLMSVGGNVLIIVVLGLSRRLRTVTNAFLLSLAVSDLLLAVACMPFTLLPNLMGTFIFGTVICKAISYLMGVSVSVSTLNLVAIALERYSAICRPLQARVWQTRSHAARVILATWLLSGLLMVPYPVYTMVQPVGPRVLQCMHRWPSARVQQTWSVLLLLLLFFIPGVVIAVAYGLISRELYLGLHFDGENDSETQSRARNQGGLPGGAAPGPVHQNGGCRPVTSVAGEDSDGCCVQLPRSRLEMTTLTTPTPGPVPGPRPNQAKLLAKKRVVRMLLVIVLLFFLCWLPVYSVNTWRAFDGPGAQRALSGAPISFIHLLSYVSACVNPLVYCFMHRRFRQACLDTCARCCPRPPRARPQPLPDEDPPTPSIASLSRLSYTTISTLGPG
Description: The cortices of 20 male rats weighing 150 to 200 g were removed, and were ground up with Polytron in sucrose 0.32M. After centrifuging, the supernatant was recovered and centrifuged. The residues were re-suspended in 120 ml of Hepes buffer pH 7.4 (Hepes 10 mM, NaCl 130 mM, MgCl2, 6H2 O 5 mM, bacitracin 250 mg/l., PMSF 1 mg/l), and re-centrifuged. The residues were taken up in 120 ml of Hepes buffer pH 7.4 and re-centrifuged at 30,000 g for 30 minutes. The residues thus obtained were taken up in 500 ml of Hepes buffer pH 7.4, which enabled 240 aliquots of 2 ml of homogenate to be obtained. The incubation was effected at 25° C. for 30 minutes in the presence of 0.5 nM of 3H CCK8 and the test product (10,000 μM for 1 dose, or with a range of 7 doses or of cold CCK8 (10^-6 M), which was the reference product). After returning the aliquots of the homogenate to 0° C., they were filtered on Whatman GF/B filters and the filters were washed with 3×5 ml of a Tris HCl 50 mM pH 7.4 buffer. The results are expressed is IC50 which is the concentration necessary to inhibit by 50% the fixed specific radioactivity.

[4] = tested on: CCK8-induced contractions of isolated ileum; assay: Action on the isolated ileum of a guinea-pig (antagonism of CCK8 contractions); settings: product 10^-7 M, one minute contact, CCK8 1.10^-8 M
Description: The test was carried out on fragments of ileum from male guinea-pigs placed under a tension of 1 g in a Krebs solution aerated with carbogen and maintained at 37° C. The contractions were recorded with a microdynamometer connected to a polygraph. The ileum was left at rest for 30 minutes and then CCK8 was added to the bath in a concentration of 1.10^-8 M, followed by rinsing. The test product was added to the bath, left in contact with the organ for one minute and then CCK8 (1.10^-8 M) was added to the bath. The possible antagonism was expressed by comparing the contractions caused by the CCK8 before and after contact with the product under test.

CN1C(=O)C(NC(=O)c2cc3ccccc3[nH]2)C(=O)N(c2ccccc2)c2cc(Cl)ccc21 (stereo not drawn) [Example 1, N-(7-chloro-2,4-dioxo-1-methyl-5-phenyl-2,3,4,5-tetrahydro-1H-1,5-benzodiazepin-3-yl)-1H-indole-2-carboxamide]
IC50 [1]: 20 nM
reduction of food consumption in relation to control animals (anorexigenic activity) [2]: more than 50%
IC50 [3]: 2200 nM

CN1C(=O)C(NC(=O)c2cc3ccccc3[nH]2)C(=O)N(c2ccccc2)c2ccccc21 (stereo not drawn) [Example 2]
IC50 [1]: 14 nM
IC50 [3]: > 10000 nM
antagonism of contractions caused by CCK8 [4]: significant antagonist activity
